Converted amounts (≈) assume the structure as drawn.
Experiments:
SW948 = assay: cell proliferation assay, cross-resistance to topoisomerase I and II inhibitors; assay type: cell-based, human; conditions: Homo sapiens; SW948 parental; mean ± SD, 2-4 independent assays; read-out: Sensitivity expressed as IC50
Description: (§1) Drug resistance to other topoisomerase I and II inhibitors was examined by determining the IC50 dose of each drug using a cell proliferation assay as shown in Table 3.

SW948CPTH = assay: as above; assay type: cell-based, human
Description: as §1

SW948 cells = assay: cell cycle analysis; assay type: cell-based, human
[1] = tested on: SW948 human colon cancer xenografts; assay: tumor xenograft growth; assay type: in vivo, Balb/c athymic nude mice; conditions: initial study: Erbitux 1 mg i.p. every 3 days, CPT-11 40 mg/kg i.v. every 6 days, 3 Gy radiation (FIG. 11); n=7
Procedure: 15. […] Erbitux® (1 mg) was administered i.p. every 3 days for 5 weeks beginning on day 22 after tumor cell injection. […] Mean change in tumor size relative to size on day 22 (n=7 mice/group) is shown. At the time of Erbitux® administration (day 22), the mean±SD size of the tumors were 71.8±39.8 mm^2.
16. […] Erbitux® (1 mg) was administered i.p. 2 times a week for 3 weeks (days 24, 27, 31, 34, 38, and 41) beginning on day 24 after tumor cell injection. […] Mean change in tumor size relative to size on day 24 (n=7 mice/group). At the time of Erbitux® administration (day 24), the mean±SD size of the tumors were 58.0±29.3 mm^2.
91. Additional studies against SW948 colon cancer cells have been carried out in vitro and with SW948 tumor xenografts. […] FIG. 10 illustrates the induction of apoptosis in SW948 cells in vitro following treatment with these agents. […] This experiment was run concurrently with a third experiment in which SW948CPTH cells were used in the xenograft (FIG. 13).
92. Balb/c athymic nude mice were injected subcutaneously with 2×10^7 SW948 or SW948CPTH cells. […] Change in average tumor size measured with calipers (surface area equal to product of two largest diameters) for each group relative to the size on day 24 was determined. […] Change in average tumor size relative to day 22 was monitored as described above for SW948 tumors.

[2] = SW948 parent cell line, dose dependent

CCc1c2c(nc3ccc(OC(=O)N4CCC(N5CCCCC5)CC4)cc13)-c1cc3c(c(=O)n1C2)COC(=O)[C@]3(O)CC [CPT-11, Irinotecan]
IC50 (SW948): 3 ± 0.4 µg/mL (≈ 5.11 µM) | IC50 (SW948CPTH; Homo sapiens, read-out: Sensitivity expressed as IC50): 43.7 ± 8.6 µg/mL (≈ 74.5 µM) | change in resistance of SW948CPTH cells compared to the parental cell line SW948 (SW948CPTH; IC50 by cell proliferation assay (Table 3)): increased resistance | G0-G1(%) (SW948 cells; SW948, CPT-11 1 μg/ml): 36.0 ± 3.2% | S(%) (SW948 cells; SW948, CPT-11 1 μg/ml): 39.6 ± 3.8% | G0-G1(%) (SW948 cells; SW948, CPT-11 2 μg/ml): 22.1 ± 2.0% | G2-M(%) (SW948 cells; SW948, CPT-11 2 μg/ml): 35.8 ± 5.1% | S(%) (SW948 cells; SW948, CPT-11 2 μg/ml): 42.1 ± 6.7% | G0-G1(%) (SW948 cells; SW948, CPT-11 5 μg/ml): 17.0 ± 1.9% | G2-M(%) (SW948 cells; SW948, CPT-11 5 μg/ml): 41.0 ± 2.5% | S(%) (SW948 cells; SW948, CPT-11 5 μg/ml): 42 ± 2.5% | change of S phase (SW948 cells; SW948 parent cell line): No obvious changes | change of percentage of cells in the G0-G1 phase (SW948 cells; [2]): decreased | change of percentage of cells in the G2-M phase (SW948 cells; [2]): increased | complete regressions [1]: 0/7
